Like-named read-outs stand apart in the source and are kept apart here.
Columns and labels:
Assay type in all cases: cell-based
[1] = system: empty vector control cells
Protocol: (§1) T7-PMS134 cells and empty vector control cells were grown with IPTG for 48 hours and then diluted 1:50 in LB plus IPTG and increasing amounts of ethyl methane sulfonate (EMS) from 0, 1, 10, 50, 100, and 200 μM. 10 μL aliquots of culture (diluted in 300 μl LB) were plated out on LB agar plus ampicillin plates and grown overnight at 37 C. The next day plates were analyzed for cell viability as determined by colony formation. […] The 200 μM treatment was toxic for both lines.

[2] = system: T7-PMS134 BL21 cells; assay: EMS toxicity, cell viability by colony formation
Protocol: as §1

[3] = system: BL21 cells; assay: Kanamycin-resistance (hypermutability) assay in BL21; details: for KAN resistant cells: after 24 hr IPTG-induction; for KAN resistant clones: non-IPTG-induced conditions
Protocol: However, upon addition of the inducer IPTG, the cells express high-levels of T7 polymerase due to the IPTG-inducible element that drives expression of the polymerase that is resident within the genome of the BL21 cells (30). The BL21 cells are chloramphenicol resistant due to the plasmid that expresses lysozyme within the cell. To introduce the pT7-hPMS 134 or the pT7-hPMSR3 genes into BL21 cells, the cells were made competent by incubating the cells in ice cold 50 mM CaCl2 for 20 minutes, followed by concentrating the cells and adding super-coiled plasmid DNA as describe (Maniatis, T. et. al. Cold Spring Harbor Laboratory Press, Third Edition, 2001). Ampicillin resistant BL21 were selected on LB-agar plates [[…], 1.5% bactoagar, pH 7.0 (Difco)] plates containing 25 μg/ml chloramphenicol and 100 μg/ml ampicillin. The next day, bacterial colonies were picked and analyzed for vectors containing an intact pTACPMS134 or pTAC empty vector by restriction endonuclease digestion and sequence analysis.
Kanamycin-resistant assays using BL21 cells expressing the V5-tagged or untagged PMS134 or PMSR3 polypeptides were carried out as described above. BL21 bacterial cells that harbor the empty vector, pT7-PMS134 or pT7-PMSR3 were grown overnight in LB supplemented with 100 μg/ml ampicillin. The overnight cultures were diluted 1:100 into fresh ampicillin containing medium and grown for 2.5 hours at 37° C. with continuous shaking. When the cells reached an optical density (OD) of 0.6, measured at 600 nm, IPTG was added to each culture to a final concentration of 0.5 mM. Cells were incubated for 24, and 48 hours; at those time points cells were removed for SDS-PAGE analysis and plating (see above). BL21/pT7 (empty vector), BL21/pT7-PMS134, and BL21/pT7-R3 cells were plated onto LB plates, LB plates that contained 100 ug/ml ampicillin, and plates that contain 50 ug/ml Kanamycin. The equivalent of 1×10^7 cells/plate were spread onto the plates. BL21 cells that harbor the empty vector are capable of growth on LB plates as well as LB plates that contain 100 ug/ml ampicillin; that is as expected since the pT7 expression vector renders the cells ampicillin resistant. The vector only control is not capable of growth on Kanamycin.

[4] = system: kanamycin resistant pT7-PMS134 and pT7-PMSR3 colonies; assay: Genetic stability of kanamycin resistance (revertants)
Protocol: As described in EXAMPLE 2 and 3, manipulation of the MMR pathway in microbes results in alterations within the host genome and the ability to select for a novel output traits. It is important that the mutations introduced as a result of defective MMR is genetically stable and passed on to daughter cells once a desired output pathway is established. To determine the genetic stability of mutations introduced into the microbial genome the following experiment was performed. Five independent colonies from pT7-PMS134 and pT7-PMSR3 that are kanamycin resistance were grown overnight from an isolated colony in 5 ml of LB. Next, 1 μL of the overnight culture from these cultures were inoculated into another 5 mL of LB and grown overnight to saturation. Under these growth conditions the microbial cells have divided over 20 generations. Therefore, if the new output trait generated by alteration of MMR is unstable, the cells should “revert” back from kanamycin resistance to kanamycin sensitivity. Cells were plated onto LB plates and incubated overnight at 37° C. Next, the colonies (about 1,000/plate) were replica plated to LB, LB^amp100, and LB^kan50 plates and incubated at 37° C. overnight. […] Extended culturing of cells and replica plating found no reversions of KAN resistance in cultures grown in the absence of IPTG, which produce no PMS134 as determined by western blot (data not shown).

Molecule: CCOS(C)(=O)=O [EMS, ethyl methane sulfonate]
- colony number ([1]; 1 uM EMS): > 1000 colonies
- colony number ([1]; 10 uM EMS): > 1000 colonies
- number of control cells ([1]; 50 μM EMS): 30
- number of control cells ([1]; 100 μM EMS): 0
- toxicity (in words) ([1]; 200 μM EMS): toxic
- colony number ([2]; 1 uM EMS): > 1000 colonies
- colony number ([2]; 10 uM EMS): > 1000 colonies
- colony number (in words) ([2]; 50 μM EMS): No difference
- reduction in colony number ([2]; 100 μM EMS): 3 fold
- toxicity (in words) ([2]; 200 μM EMS): toxic

B1: PMS134: dominant negative human PMS2 truncated at codon 134; N-terminal 133 amino acids (SEQ ID NO: 21) (protein, listed as Homo sapiens)
chain: MKQLPAATVRLLSSSQIITSVVSVVKELIENSLDAGATSVDVKLENYGFDKIEVRDNGEGIKAVDAPVMAMKYYTSKINSHEDLENLTTYGFRGEALGSICCIAEVLITTRTAADNFSTQYVLDGSGHILSQK
- KAN resistant cells [3]: significant number
- KAN resistant clones [3]: failed to produce any KAN resistant clones
- revertants of KAN resistance ([4]; continually grown in IPTG, out of 1200): 5
- loss of KAN resistant clones ([4]; grown in the absence of IPTG): No loss

B2: PMSR3: human PMS2 related gene product (SEQ ID NO: 24) (protein, listed as Homo sapiens)
chain: MCPWRPRLGRRCMVSPREADLGPQKDTRLDLPRSPARAPREQNSLGEVDRRGPREQTRAPATAAPPRPLGSRGAEAAEPQEGLSATVSACFQEQQEMNTLQGPVSFKDVAVDFTQEEWRQLDPDEKIAYGDVMLENYSHLVSVGYDYHQAKHHHGVEVKEVEQGEEPWIMEGEFPCQHSPEPAKAIKPIDRKSVHQICSGPVVLSLSTAVKELVENSLDAGATNIDLKLKDYGVDLIEVSDNGCGVEEENFEGLISFSSETSHM
- KAN resistant cells [3]: significant number
- KAN resistant clones [3]: failed to produce any KAN resistant clones
